Measured values taken from the NIST ThermoML archive (doi:10.1021/je060411g).

Experiment: molar heat capacity at constant pressure
Conditions: 101.33 kPa

CCC(C)(C)O [2-methylbutan-2-ol]
Conditions | molar heat capacity at constant pressure [J/K/mol]
84.18 K, Crystal 3 | 59.96
84.41 K, Crystal 3 | 60.87
85.57 K, Crystal 3 | 65.73
86.62 K, Crystal 3 | 61.65
86.85 K, Crystal 3 | 61.55
87.94 K, Crystal 3 | 66.53
89.04 K, Crystal 3 | 62.98
89.26 K, Crystal 3 | 62.98
90.33 K, Crystal 3 | 68.13
91.86 K, Crystal 3 | 64.6
92.09 K, Crystal 3 | 64.56
93.17 K, Crystal 3 | 69.93
94.67 K, Crystal 3 | 66.27
94.91 K, Crystal 3 | 66.32
95.99 K, Crystal 3 | 71.8
97.49 K, Crystal 3 | 67.95
97.72 K, Crystal 3 | 68.07
98.82 K, Crystal 3 | 73.51
100.31 K, Crystal 3 | 70.24
100.54 K, Crystal 3 | 70.6
101.65 K, Crystal 3 | 75.44
103.12 K, Crystal 3 | 72.36
103.36 K, Crystal 3 | 72.54
104.48 K, Crystal 3 | 76.92
105.95 K, Crystal 3 | 73.89
106.18 K, Crystal 3 | 74.04
107.28 K, Crystal 3 | 78.03
108.74 K, Crystal 3 | 75.59
108.97 K, Crystal 3 | 75.81
110.03 K, Crystal 3 | 79.77
111.48 K, Crystal 3 | 77.47
111.7 K, Crystal 3 | 77.66
112.73 K, Crystal 3 | 81.52
114.17 K, Crystal 3 | 79.5
114.38 K, Crystal 3 | 79.61
115.38 K, Crystal 3 | 83.05
116.8 K, Crystal 3 | 81.46
117.02 K, Crystal 3 | 81.54
117.99 K, Crystal 3 | 84.42
119.4 K, Crystal 3 | 83.36
119.61 K, Crystal 3 | 83.37
120.55 K, Crystal 3 | 85.98
121.95 K, Crystal 3 | 85.58
122.15 K, Crystal 3 | 85.21
123.09 K, Crystal 3 | 87.29
124.47 K, Crystal 3 | 87.36
124.66 K, Crystal 3 | 87.39
125.59 K, Crystal 3 | 88.61
126.95 K, Crystal 3 | 89.35
127.13 K, Crystal 3 | 89.35
128.06 K, Crystal 3 | 90.2
129.39 K, Crystal 3 | 91.6
129.57 K, Crystal 3 | 91.64
130.5 K, Crystal 3 | 91.83
131.8 K, Crystal 3 | 96.05
131.98 K, Crystal 3 | 95.7
132.91 K, Crystal 3 | 94.22
134.19 K, Crystal 3 | 97.24
134.35 K, Crystal 3 | 97.17
135.29 K, Crystal 3 | 94.95
136.54 K, Crystal 3 | 98.99
136.7 K, Crystal 3 | 98.94
137.65 K, Crystal 3 | 96.49
138.86 K, Crystal 3 | 102.38
139.01 K, Crystal 3 | 102.19
139.98 K, Crystal 3 | 98.2
141.14 K, Crystal 3 | 106.32
141.29 K, Crystal 3 | 106.03
142.29 K, Crystal 3 | 99.86
143.38 K, Crystal 3 | 112.82
143.53 K, Crystal 3 | 110.46
144.58 K, Crystal 3 | 101.73
148.39 K, Crystal 2 | 89.39
148.47 K, Crystal 2 | 107.13
149.08 K, Crystal 2 | 105.46
150.5 K, Crystal 2 | 120.91
150.6 K, Crystal 2 | 120.49
151.3 K, Crystal 2 | 107.39
152.65 K, Crystal 2 | 120.48
152.74 K, Crystal 2 | 120.32
153.5 K, Crystal 2 | 109.42
154.78 K, Crystal 2 | 120.35
154.87 K, Crystal 2 | 120.25
155.66 K, Crystal 2 | 111.51
156.9 K, Crystal 2 | 120.17
156.98 K, Crystal 2 | 120.02
157.81 K, Crystal 2 | 113.29
159.02 K, Crystal 2 | 121.07
159.09 K, Crystal 2 | 120.89
159.95 K, Crystal 2 | 115.97
161.12 K, Crystal 2 | 121.73
161.19 K, Crystal 2 | 121.42
162.06 K, Crystal 2 | 118.39
163.23 K, Crystal 2 | 122.32
163.28 K, Crystal 2 | 121.93
164.16 K, Crystal 2 | 120.83
165.34 K, Crystal 2 | 123.02
